Measured values from patent US12428416B2 (California Institute of Technology, priority 2018, dated 2025).

How the values were obtained:
[1] = test system: drug-resistant cell lines of Table 4; assay: Cell line growth retardation assay, average over resistant cohort; format: cell-based, Human; details: Homo sapiens, 144 h; geometric mean of IC50s over resistant cohort (Table 4); 6 days growth; read-out: AvgRes IC50
Outline: (§1)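 Cancer cell lines treated 6 days with compound at 10 μM down to 0.0032 μM (5-fold steps) vs vehicle; cells counted by imaging on day 0 and day 6. Growth inhibition as ratio of population doublings with vs without compound; per-line IC50 from curve fit, cohort value as geometric mean.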

[2] = Compound metabolic stability in hepatocytes; format: in vitro ADME; details: hepatocytes from mice and rats (species not given); class symbols without key
Description: The metabolic stability of compounds was determined in hepatocytes from mice and rats. Compounds were diluted to 5 μM in Williams' Medium E from 10 mM stock solutions. 10 μL of each compound was aliquoted into a well of a 96-well plate and reactions were started by aliquoting 40 μL of a 625,000 cells/mL suspension into each well. The plate was incubated at 37° C. with 5% CO2. At each corresponding time point, the reaction was stopped by quenching with ACN containing internal standards (IS) at a 1:3. Plates were shaken at 500 rpm for 10 min, and then centrifuged at 3,220×g for 20 minutes. Supernatants were transferred to another 96-well plate containing a dilution solution. Supernatants were analyzed by LC/MS/MS.
Compound half-life was estimated using the following equation: % Remaining Compound=Peak Area Ratios of Tested Compound vs. Internal Standard at End Point/Peak Area Ratios of Tested Compound vs. Internal Standard at Start Point Mouse Xenograft Studies

ERK1 = ERK1 (Homo sapiens, UniProt P27361); assay: ERK1 and 2 Enzymatic Inhibition Assay (ERK1); format: biochemical; details: 10 assay concentrations 2×10^−6 M to 6×10^−11 M, 1% DMSO
ERK1, sequence (P27361 whole entry): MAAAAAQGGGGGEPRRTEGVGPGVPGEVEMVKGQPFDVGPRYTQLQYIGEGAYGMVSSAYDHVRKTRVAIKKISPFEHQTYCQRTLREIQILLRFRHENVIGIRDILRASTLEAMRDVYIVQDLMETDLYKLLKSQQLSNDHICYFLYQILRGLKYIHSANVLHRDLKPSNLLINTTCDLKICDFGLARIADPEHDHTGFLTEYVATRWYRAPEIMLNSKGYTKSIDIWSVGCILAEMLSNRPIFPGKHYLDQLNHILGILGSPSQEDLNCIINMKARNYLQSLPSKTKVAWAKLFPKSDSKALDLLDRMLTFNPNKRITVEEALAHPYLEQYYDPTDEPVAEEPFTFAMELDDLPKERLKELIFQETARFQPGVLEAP
Outline: (§2)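 Ki determination: compounds serially diluted semi-logarithmically in DMSO and tested at 10 final concentrations from 2×10^−6 M to 6×10^−11 M with 1% final DMSO.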

[3] = test system: drug-sensitive cell lines of Table 4; assay: Cell line growth retardation assay, average over sensitive cohort; format: cell-based, Human; details: Homo sapiens, 144 h; geometric mean of IC50s over sensitive cohort (Table 4); 6 days growth; read-out: AvgSens IC50
Outline: as §1

ERK2 = ERK2 (Homo sapiens, UniProt P28482); assay: ERK1 and 2 Enzymatic Inhibition Assay (ERK2); format: biochemical; details: 10 assay concentrations 2×10^−6 M to 6×10^−11 M, 1% DMSO
ERK2, sequence (P28482 whole entry): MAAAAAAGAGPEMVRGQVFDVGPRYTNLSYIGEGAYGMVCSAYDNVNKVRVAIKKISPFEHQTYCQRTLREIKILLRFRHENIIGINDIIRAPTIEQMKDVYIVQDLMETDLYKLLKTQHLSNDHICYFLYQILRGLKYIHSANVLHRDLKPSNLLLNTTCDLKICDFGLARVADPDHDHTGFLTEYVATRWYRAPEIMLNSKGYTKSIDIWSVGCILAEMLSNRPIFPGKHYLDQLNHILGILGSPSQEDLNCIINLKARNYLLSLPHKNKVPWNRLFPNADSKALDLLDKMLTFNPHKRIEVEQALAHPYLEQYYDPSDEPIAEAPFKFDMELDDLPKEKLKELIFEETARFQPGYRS
Outline: as §2

[4] = test system: phosphorylated RSK (pRSK) in M275 cells; assay: Western Blot for Total and pRSK; format: cell-based, human; details: treatment for 4.5 hours and 24 hours, 200 nM
Description: Western Blot for Total and pRSK
For Western blot assays (see FIG. 14), protein lysates were obtained from either the M275 or M202 human melanoma cancer cell lines. For assay, cells were plated on 10 cm dishes and treated 24 hours later with either 200 nM of test compound in DMSO or DMSO control for 4.5 or 24 hours. After the treatment period, cells were washed twice in ice-cold PBS and lysed for 15 minutes at 4° C. using a mild lysis buffer (Cell Signaling Technology) containing a mixture of protease inhibitors (Calbiochem) and 1 mmol/L phenlymethylsulfonlyfluoride. Insoluble material was removed by centrifugation at 10,000×g for 10 minutes. Protein concentration of each sample was quantified by BCA (Pierce), resolved by SDS-PAGE, and transferred to nitrocellulose membranes (iBlot, Invitrogen Life Technology). Total (32D7, Cell Signaling Technologies) and phosphorylated ([…]; D1E9, Cell Signaling Technology) RSK protein were detected using the indicated antibody clones. All blots were repeated in duplicate and relative levels of individual proteins compared to a loading control (α-tubulin) (11H10; Cell Signaling Technology) were quantitated using the ECL Plus chemifluorescent reagent (Amersham Biosciences) and the ChemiDoc™ Touch Imaging System (BioRad).

[5] = Mouse Maximum Tolerated Dose Studies; format: in vivo; details: mice, oral gavage (PO)
Description: Mouse Maximum Tolerated Dose Studies
For maximum tolerated dose (MTD) determination studies, non-tumor bearing CD-1 athymic nude mice were randomized into […] treatment groups (5 mice per group) and treated with either 400, 300, 200, 100, 50 or 25 mg/kg of compound by daily PO, or 200, 100, 50, 25, or 12.5 mg/kg of compound twice daily PO. Mice were weighed daily and % body weight loss was calculated relative to individual mouse body weights at the start of treatment. […] MTD was determined as the highest dose at which a mean body weight loss of <10% over 14 days of dosing was observed.

Row | SMILES | IC50 [1] | half-life at 1 µM [2] | Kd (ERK1) | IC50 [3] | Kd (ERK2) | level of phosphorylated RSK (pRSK) [4] | maximum tolerated QD dose ([5]; daily (QD)) | maximum tolerated BID dose ([5]; twice daily (BID))
1 | O=C(NCCc1ccccc1)c1ncc(-c2c[nH]c3ncc(N4CCOCC4)cc23)cn1 [Compound 11, 5-(5-morpholino-1H-pyrrolo[2,3-b]pyridin-3-yl)-N-phenethylpyrimidine-2-carboxamide] | > 500 nM | < 25 min | ≤ 10 nM | 251 to 500 nM | ≤ 10 nM |  |  | 
2 | O=C(c1ncc(-c2c[nH]c3ncc(N4CCOCC4)cc23)cn1)N1CCCC1c1ccccn1 (stereo not drawn) [Compound 26, (5-(5-morpholino-1H-pyrrolo[2,3-b]pyridin-3-yl)pyrimidin-2-yl)(2-(pyridin-2-yl)pyrrolidin-1-yl)methanone] | > 500 nM | < 25 min | 11 to 100 nM | > 500 nM | > 100 nM |  |  | 
3 | CC(NC(=O)c1ncc(-c2c[nH]c3ncc(N4CCOCC4)cc23)cn1)c1ccccc1 (stereo in doubt) [Compound 6, (R)-5-(5-morpholino-1H-pyrrolo[2,3-b]pyridin-3-yl)-N-(1-phenylethyl)pyrimidine-2-carboxamide] | > 500 nM | > 25 min | ≤ 10 nM | ≤ 250 nM | ≤ 10 nM | decrease | 200 mg/kg | 100 mg/kg
